Values of other authors, collected in US20100179202A1, “ORALLY DISINTEGRATING COMPOSITION OF ZOLMITRIPTAN” (AJANTA PHARMA LIMITED., priority 2009, published 2010).

Conditions: background description of the drug substance

solubility in water: readily soluble in water
SMILES: CN(C)CCc1c[nH]c2ccc(C[C@H]3COC(=O)N3)cc12 [Zolmitriptan, (4S)-4-{[3-(2-dimethylaminoethyl)-1H-indol-5-yl]methyl}-1,3-oxazolidin-2-one]
